Test results as given in PubChem BioAssay AID489035 (Sanford-Burnham Center for Chemical Genomics, 2010).
Activity calls are given as the source filed them. How the calls were made is not given here.

The molecules below were run on Jurkat NF-kB reporter, TCR-induced, luciferase luminescence (assay: T-cell NF-kB luciferase reporter inhibition – Jurkat cells, luminescence, dose response (AID 489035)).

| SMILES | IC50 |
| --- | --- |
| CCOC(=O)C(C)Oc1cccc2c(=O)n(CC(=O)NCc3ccc(F)cc3)ccc12 (stereo not given) | > 80 µM (inactive) |
| CCOC(=O)C(C)Oc1cccc2c(=O)n(CC(=O)NCc3ccco3)ccc12 (stereo not given) | > 80 µM (inactive) |
| CC(C)Cn1c(N)c(C(=O)CSc2ccc3c(c2)OCCO3)c(=O)n(C)c1=O | < 0.16 µM |
| Clc1cccc(Cl)c1OCCOCCNCc1ccccc1 | > 80 µM (inactive) |
| CCN(CC)c1ccc(NC(=O)c2cc(OC)cc(OC)c2)c(C)c1 | > 80 µM (inactive) |
| CCOCCCNC(=O)c1ccc2c(c1)N=C(CC)c1cc(Br)ccc1S2 | 5.67 µM |
| CCOC(=O)/C=C/S(=O)(=O)c1ccc(NC(C)=O)cc1 | 1.12 µM |
| Cn1ncc2c(N3CCN(c4ccc(Cl)c(Cl)c4)CC3)ncnc21 | 7.55 µM |
| Cn1cc(/C=N/n2cnc3scc(-c4ccc(Cl)cc4)c3c2=O)c2ccccc21 | > 80 µM (inactive) |
| CCc1cc(C(=O)NC2CCCc3c2cnn3-c2cccc(C)c2C)n(C)n1 (stereo not given) | > 80 µM (inactive) |
| CCCN1C=CC(=C2C(=O)c3ccccc3C2=O)C=C1 | 0.52 µM |
| CCN(CC)c1ccc(-c2nn3c(-c4ccccc4OC)nnc3s2)cc1 | 20.4 µM (inactive) |
| COc1ccc(C(=O)NNC(=O)c2ccccn2)cc1 | 1.93 µM |
| CCn1cc(C(=O)NC2CCCc3c2cnn3-c2cccc(C)c2C)cn1 (stereo not given) | > 80 µM (inactive) |
| Cc1cccc(N(C)S(=O)(=O)c2ccc(-c3cnc(C4CC4)o3)cc2)c1 | 23.8 µM (inactive) |
| CC(C)(C)c1nnc(N/N=C/c2ccccc2O)n(N)c1=O | 12.2 µM |
| O=C(COc1ccc2c(-c3ccccc3)cc(=O)oc2c1)Nc1cccnc1 | > 80 µM (inactive) |
| CCN1C/C(=C/c2ccc(OC)c(O)c2)C(=O)/C(=C/c2ccc(OC)c(O)c2)C1 | 22.5 µM (inactive) |
| Cc1ccc(NC(=O)C2=C(c3ccccc3)S(=O)(=O)CCS2(=O)=O)cc1 | 1.61 µM |
| CCCCCCCCCn1c2c(c(=N)c3c1CCC3)CCC2 | 7.67 µM |
| CC(Oc1ccc(Cl)cc1Cl)C(=O)Nc1ccncc1 (stereo not given) | 61.3 µM (inactive) |
| O=Cc1cc2ccccc2nc1SCc1ccc(Cl)c(Cl)c1 | > 80 µM (inactive) |
| O=C(Nc1ccc(S(=O)(=O)N2CCN(Cc3ccccc3)CC2)cc1)c1cnccn1 | > 80 µM (inactive) |
| CN(Cc1ccccc1)C1=CC(=[N+]2CCCC2)CC(C)(C)C1 | 55.1 µM (inactive) |
| COc1ccc(Nc2nc3cc(C)ccc3cc2C#N)c(OC)c1 | > 80 µM (inactive) |

| SMILES | IC50 |
| --- | --- |
| COC(=O)C(Cc1ccc(N(CCCl)CCCl)cc1)N=Cc1ccccc1O (stereo not given) | 0.65 µM |
| CCc1ccc(/C=N/NC(=O)c2cc(-c3ccncc3)nc3ccccc23)s1 | > 80 µM (inactive) |
| CC(C)(C)c1ccc(C(=O)O/N=C(\N)c2ccccn2)cc1 | 9.45 µM |
| C=CCn1c(C)cc(C2=NNC(=NCC)SC2)c1C | < 0.16 µM |
| CCOc1ccccc1NC(=O)Cn1nnc(C(=O)NCc2cccs2)c1N | > 80 µM (inactive) |
| O=C(N/N=C\c1c(O)ccc2ccccc12)c1cncc(Br)c1 | 4.01 µM |
| CCOc1ccc(N/C(N)=N/c2nc(CSc3nnc(C)s3)cc(=O)[nH]2)cc1 | > 80 µM (inactive) |
| O=C(OCCN1C(=O)c2cccc3c(N4CCOCC4)ccc(c23)C1=O)c1ccc(Cl)cc1 | > 80 µM (inactive) |
| Cc1ccc(S(=O)(=O)NCc2ccncc2)cc1C | > 80 µM (inactive) |
| COc1ccc(C(C(=O)NC2CCCCC2)N(C(=O)CCl)c2ccc(C)cc2)cc1 (stereo not given) | 0.33 µM |
| COc1ccc(COC(=O)c2cc([N+](=O)[O-])ccc2N2CCOCC2)cc1F | > 80 µM (inactive) |
| CCCCC(=O)NC(c1ccc(N(CC)CC)cc1)c1ccc2cccnc2c1O (stereo not given) | 8.89 µM |
| COc1ccccc1NC(=O)C1=C(C)Nc2nc3ccccc3n2C1c1cccs1 (stereo not given) | 52.3 µM (inactive) |
| Cc1ccc2nc(C)c(CN3CCN(c4ccc([N+](=O)[O-])cc4Cl)CC3)n2c1 | 26.6 µM (inactive) |
| C=CCNC(=S)N/N=C(\C)c1ccccn1 | 1.09 µM |
| CCCC(=O)NC(c1ccc(OC)cc1)c1ccc2cccnc2c1O (stereo not given) | 2.83 µM |
| NC(=O)CC(NC(=O)c1ccc(Br)cc1)c1ccc(N2CCCCCC2)c([N+](=O)[O-])c1 (stereo not given) | 2.54 µM |
| C#CC[N+](C)(C)CCCCCCCCCCCC | 9.77 µM |
| Cn1nc(C(C)(C)C)cc1C(=O)NCc1cc(F)cc2c1OCOC2 | > 80 µM (inactive) |
| CCN(c1ccccc1)S(=O)(=O)c1ccc(C(=O)NC2CCN(Cc3ccccc3)CC2)cc1 | 33 µM (inactive) |
| CCCCCCCCCCCCCCCC[n+]1cccc(C(=O)N(CC)CC)c1 | 3.02 µM |
| O=C(/C=C/c1cccc([N+](=O)[O-])c1)n1cnc2ccccc21 | 5.79 µM |
| N#C/C(=C\c1ccc(OCc2ccc(C(=O)O)cc2)cc1)C(=O)N1CCOCC1 | 1.55 µM |
| CC1(C)Cc2c(sc(NC(=O)COc3cccc4ccccc34)c2C#N)C(C)(C)N1 | 13.5 µM |
| COc1cc(C(=O)Nc2ccc3c(c2)ncn3C)cc(OC)c1OC | > 80 µM (inactive) |

| SMILES | IC50 |
| --- | --- |
| COc1cccc(N2CCN(C(=O)c3ccc(CS(=O)c4ccccc4C)o3)CC2)c1 (stereo not given) | 16.7 µM |
| COc1ccc(-c2csc(NC(=O)C3CCN(c4ncnc5sc(C)c(C)c45)CC3)n2)cc1OC | > 80 µM (inactive) |
| C=CC[C@@H](CC/C=C/C=C/CC/C=C\[C@@H]1CSC([C@@H]2C[C@@H]2C)=N1)OC | 50.8 µM (inactive) |
| CN(C)c1ccc2c(c1)OC(N)=C(C#N)C2c1cccc(F)c1 (stereo not given) | 50.2 µM (inactive) |
| Cc1ccccc1NC1=C/C(=N\S(=O)(=O)c2cccs2)c2ccccc2C1=O | 1.25 µM |
| CC(C)c1ccc(/C=N/Nc2ccc(C(=O)O)cc2)cc1 | 4.63 µM |
| COc1ccccc1C(=O)Nc1nc2ccccc2s1 | 0.77 µM |
| C(=N\Nc1nc2ccccc2s1)/c1ccccn1 | 0.84 µM |
| COc1cc(C2c3cc4c(cc3C(OC3OC5COC(c6cccs6)OC5C(O)C3O)C3COC(=O)C23)OCO4)cc(OC)c1O (stereo not given) | 0.68 µM |
| COc1ccc(C(=O)N2CCN(c3ccc([N+](=O)[O-])c(NCCc4ccc(OC)c(OC)c4)c3)CC2)cc1 | > 80 µM (inactive) |
| COc1ccc(N/N=C/c2c(C(=O)O)ccc3ccccc23)cc1 | 16.4 µM |
| c1ccc(-c2cccc(-c3ccccn3)n2)nc1 | 1.61 µM |
| CCCC(=O)NC(c1ccc(C)cc1)c1ccc2cccnc2c1O (stereo not given) | 8.63 µM |
| O=C(c1ccccc1-c1ccccc1)N1CCN(c2ccccn2)CC1 | > 80 µM (inactive) |
| Cc1c(C(=O)N2CCOCC2)[nH]c2c1C(=O)CC(c1ccccc1Cl)C2 (stereo not given) | > 80 µM (inactive) |
| COc1ccc(NC(=O)C(=O)NCC2CCCN2S(=O)(=O)c2cccs2)cc1 (stereo not given) | 7.15 µM |
| CCCCCC(=O)N[C@@H](c1ccccc1)[C@@H](O)C(=O)O[C@H]1C[C@@]2(O)[C@@H](OC(=O)c3ccccc3)C3[C@](C)(C(=O)[C@H](OC(C)=O)C(=C1C)C2(C)C)[C@@H](O)C[C@H]1OC[C@@]31OC(C)=O (stereo not given in full) | 32.3 µM (inactive) |
| Cc1noc(C)c1COc1ccc(C(=O)NNC(=O)c2ccccc2F)cc1 | > 80 µM (inactive) |
| Cc1cc(C)cc(C(=O)N2CC(=O)Nc3ccccc32)c1 | 15.7 µM |
| O=S(=O)(C/C(=C/CO)S(=O)(=O)c1ccccc1)c1ccccc1 | 0.77 µM |
| Cc1cccc(N2CCN(C(=O)c3ccc(CS(=O)(=O)c4ccccc4C)o3)CC2C)c1 (stereo not given) | 9.62 µM |
| Cc1ccc(NS(=O)(=O)c2ccc(C(=O)NC3CCN(Cc4ccccc4)CC3)cc2)cc1 | 19.8 µM |
| CC(C)Nc1ccc(C(CC(N)=O)NC(=O)c2ccc(Br)cc2)cc1[N+](=O)[O-] (stereo not given) | 4.05 µM |
| COc1ccccc1NC(=O)c1cnc(Nc2ccccc2OC)c2ccccc12 | > 80 µM (inactive) |
| COc1ccc(C2=Nn3c([n+](C)c4ccccc43)SC2)cc1 | > 80 µM (inactive) |

| SMILES | IC50 |
| --- | --- |
| COC(=O)c1[nH]c2c(c1C)C(=O)CC(c1cccc(OC)c1)C2 (stereo not given) | > 80 µM (inactive) |
| COc1ccc(OC)c(COC(=O)c2cc([N+](=O)[O-])ccc2N2CCOCC2)c1 | 71.8 µM (inactive) |
| O=C(NCc1cccs1)C1CCN(c2ccc(S(=O)(=O)N3CCOCC3)cc2Cl)CC1 | 25.6 µM (inactive) |
| COC(=O)c1[nH]c2c(c1C)C(=O)CC(c1cccs1)C2 (stereo not given) | > 80 µM (inactive) |
| Cc1oc2c(c1C(=O)NCc1cccnc1)C(=O)c1ccccc1C2=O | 1.1 µM |
| COc1cccc(OC)c1C1=NCC(=O)Nc2c1oc1ccc(Br)cc21 | > 80 µM (inactive) |
| COc1cc2nc(NC(=O)c3ccco3)sc(=O)c2cc1OC | 0.47 µM |
| COc1cc(-c2noc(C)c2-c2ccc(N(C)C)nc2)cc(OC)c1OC | > 80 µM (inactive) |
| CCOC(=O)c1[nH]c(C=O)c(C(=O)OCC)c1C | > 80 µM (inactive) |
| Cc1cccc(NS(=O)(=O)c2ccc(-c3cnc(C4CC4)o3)cc2)c1 | > 80 µM (inactive) |
| Cc1ccc(O)c(N=Nc2nccs2)c1 | 1.79 µM |
| Oc1ccccc1N=Nc1nc(-c2ccccc2)c(-c2ccccc2)[nH]1 | 0.82 µM |
| Cc1cc(C)c(S(=O)(=O)Nc2ccc3c4c(cccc24)CC3)c(C)c1 | 61 µM (inactive) |
| COc1cc(NC(=O)N2CCNC2=O)cc(C(=O)Nc2cccc(C(F)(F)F)c2)c1 | > 80 µM (inactive) |
| COc1cc(C2C(C#N)=C(N)Oc3cc4c(cc32)OCO4)cc(OC)c1OC (stereo not given) | 34.1 µM (inactive) |
| COc1ccc([C@H]2CC(=O)C=C(c3c(OC)cccc3OC)C2)cc1 | > 80 µM (inactive) |
| COc1cc(-c2noc(C)c2/C=C/c2cccc([N+](=O)[O-])c2)cc(OC)c1OC | > 80 µM (inactive) |
| CCN(CC)c1ccc(/C=N/NC(=O)c2nnn(-c3nonc3N)c2C(C)C)c(O)c1 | 2.02 µM |
| CCCCn1c2c(c(=N)c3c1CCC3)CCC2 | > 80 µM (inactive) |
| C#Cc1ccc([C@@H]2C=C(C(=O)N3CCN(Cc4ccccc4)CC3)O[C@H](OCCCCO)C2)cc1 | > 80 µM (inactive) |
| CC(C)(C)OC(=O)NCCCCCc1cn(CC(=O)NCCCCCCCCCCC(=O)N2CCN(C(=O)OC(C)(C)C)CC2)nn1 | > 80 µM (inactive) |
| CCc1ccc(S(=O)(=O)/N=C2\C=C(Nc3ccc(O)cc3)C(=O)c3ccccc32)cc1 | 2.58 µM |
| COc1ccc(NC(=O)Cn2nnc(-c3ccccc3NS(=O)(=O)c3ccc(OC)cc3)n2)cc1 | > 80 µM (inactive) |
| Cc1ccc(Nc2nc(-c3c(C)nc4ccccn34)cs2)cc1 | 24.6 µM (inactive) |
| O=C(c1ccccc1)c1cc([N+](=O)[O-])ccc1N1CCOCC1 | > 80 µM (inactive) |
